ChEMBL document CHEMBL4368904 (J Med Chem, 2019)

Key:
Adenosine receptor A2a [1] = target: T1, Adenosine receptor A2a (Homo sapiens, UniProt P29274); assay: Displacement of [3H]2-[p-(2-carboxyethyl)phenylethylamino]-5-N-ethylcarboxamidoadenosine from human A2A adenosine receptor expressed in HEK293 cell membranes at 10 uM after 60 mins by scintillation proximity assay relative to adenosine 5-N-ethyluronamide
[2] = target: Adenosine receptor A2a (Mus musculus) (UniProt Q60613); assay: Displacement of [3H]2-[p-(2-carboxyethyl)phenylethylamino]-5-N-ethylcarboxamidoadenosine from mouse A2A adenosine receptor expressed in HEK293 cell membranes at 10 uM after 60 mins by scintillation proximity assay relative to adenosine 5-N-ethyluronamide
[3] = target: T2, Adenosine receptor A3 (Homo sapiens) (UniProt P0DMS8); assay: Displacement of [125I]N6-(4-amino-3-iodobenzyl)adenosine-5-N-methyluronamide from human A3A adenosine receptor expressed in CHO cell membranes at 10 uM after 60 mins by scintillation proximity assay relative to adenosine 5-N-ethyluronamide
T2 sequence (whole entry): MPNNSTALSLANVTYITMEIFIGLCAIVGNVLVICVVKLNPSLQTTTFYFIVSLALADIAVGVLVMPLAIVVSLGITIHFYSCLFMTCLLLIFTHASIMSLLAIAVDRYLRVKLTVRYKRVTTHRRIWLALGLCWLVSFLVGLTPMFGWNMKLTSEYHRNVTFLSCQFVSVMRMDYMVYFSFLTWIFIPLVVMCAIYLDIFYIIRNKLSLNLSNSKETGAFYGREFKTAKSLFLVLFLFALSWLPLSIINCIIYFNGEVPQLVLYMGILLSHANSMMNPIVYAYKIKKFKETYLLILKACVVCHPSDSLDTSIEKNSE

Translocator protein = Translocator protein (Homo sapiens, UniProt P30536); assay: Inhibition of TSPO (unknown origin)
Mus musculus [4] = assay: Induction of hypothermia in C57BL/6J mouse assessed as body temperature at 10 mg/kg, ip measured at 60 mins post dose (reference value: 36.3 +/- 0.8 degC); assay type: functional
Mus musculus [5] = assay: Induction of hypothermia in C57BL/6J mouse assessed as activity counts at 10 mg/kg, ip measured at 60 mins post dose (reference value: 15.5 +/- 5.5); assay type: functional
[6] = target: Sigma intracellular receptor 2 (Homo sapiens, UniProt Q5BJF2); assay: Inhibition of sigma receptor 2 (unknown origin)
[7] = target: T3, Adenosine receptor A1 (Homo sapiens) (UniProt P30542); assay: Displacement of [3H]N6-R-phenylisopropyladenosine from human A1A adenosine receptor expressed in CHO cell membranes at 10 uM after 60 mins by scintillation proximity assay relative to adenosine 5-N-ethyluronamide
T3 sequence (whole entry): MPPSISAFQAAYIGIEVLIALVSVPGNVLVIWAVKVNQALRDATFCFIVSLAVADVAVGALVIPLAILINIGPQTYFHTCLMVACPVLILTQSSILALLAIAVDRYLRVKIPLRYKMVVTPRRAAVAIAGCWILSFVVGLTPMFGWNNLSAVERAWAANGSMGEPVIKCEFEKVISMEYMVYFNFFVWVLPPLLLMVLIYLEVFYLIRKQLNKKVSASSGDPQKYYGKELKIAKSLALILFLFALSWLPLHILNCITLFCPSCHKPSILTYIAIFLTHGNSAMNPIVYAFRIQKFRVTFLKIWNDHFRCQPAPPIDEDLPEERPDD

Adenosine receptor A2a [8] = target: T1, Adenosine receptor A2a; assay: Displacement of [3H]2-[p-(2-carboxyethyl)phenylethylamino]-5-N-ethylcarboxamidoadenosine from human A2A adenosine receptor expressed in HEK293 cell membranes after 60 mins by scintillation proximity assay
Adenosine receptor A3 [9] = target: T4, Adenosine receptor A3 (Homo sapiens, UniProt P0DMS8); assay: Displacement of [125I]N6-(4-amino-3-iodobenzyl)adenosine-5-N-methyluronamide from human A3A adenosine receptor expressed in CHO cell membranes after 60 mins by scintillation proximity assay
T4 sequence (P0DMS8 whole entry): T2 sequence (whole entry)

Adenosine receptor A3 [10] = target: T5, Adenosine receptor A3 (Mus musculus, UniProt Q61618); assay: Displacement of [125I]N6-(4-amino-3-iodobenzyl)adenosine-5-N-methyluronamide from mouse A3A adenosine receptor expressed in CHO cell membranes after 60 mins by scintillation proximity assay
T5 sequence (Q61618 whole entry): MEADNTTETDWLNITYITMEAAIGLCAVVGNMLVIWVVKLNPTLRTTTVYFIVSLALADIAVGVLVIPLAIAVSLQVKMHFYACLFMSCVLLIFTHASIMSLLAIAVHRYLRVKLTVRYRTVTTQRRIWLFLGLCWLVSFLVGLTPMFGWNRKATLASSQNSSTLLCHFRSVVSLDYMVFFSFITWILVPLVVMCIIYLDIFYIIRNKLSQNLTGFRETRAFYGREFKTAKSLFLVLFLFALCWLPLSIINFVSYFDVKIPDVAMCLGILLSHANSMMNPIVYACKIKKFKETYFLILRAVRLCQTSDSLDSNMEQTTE

Mus musculus [11] = assay: Induction of hypothermia in C57BL/6J mouse assessed as body temperature at 3 mg/kg, ip measured at 60 mins post dose (reference value: 36.3 +/- 0.8 degC); assay type: functional
Mus musculus [12] = assay: Induction of hypothermia in C57BL/6J mouse assessed as activity counts at 3 mg/kg, ip measured at 60 mins post dose (reference value: 15.5 +/- 5.5); assay type: functional
Adenosine receptor A1 = target: T6, Adenosine receptor A1 (Homo sapiens, UniProt P30542); assay: Displacement of [3H]N6-R-phenylisopropyladenosine from human A1A adenosine receptor expressed in CHO cell membranes after 60 mins by scintillation proximity assay
T6 sequence (P30542 whole entry): T3 sequence (whole entry)

[13] = target: T7, Adenosine receptor A1 (Mus musculus) (UniProt Q60612); assay: Agonist activity at mouse A1A adenosine receptor at 10 uM after 60 mins by [35S]GTPgammaS binding assay relative to (2S,3S,4R,5R)-5-(6-amino-9H-purin-9-yl)-N-ethyl-3,4-dihydroxytetrahydrofuran-2-carboxamide; assay type: functional
T7 sequence (whole entry): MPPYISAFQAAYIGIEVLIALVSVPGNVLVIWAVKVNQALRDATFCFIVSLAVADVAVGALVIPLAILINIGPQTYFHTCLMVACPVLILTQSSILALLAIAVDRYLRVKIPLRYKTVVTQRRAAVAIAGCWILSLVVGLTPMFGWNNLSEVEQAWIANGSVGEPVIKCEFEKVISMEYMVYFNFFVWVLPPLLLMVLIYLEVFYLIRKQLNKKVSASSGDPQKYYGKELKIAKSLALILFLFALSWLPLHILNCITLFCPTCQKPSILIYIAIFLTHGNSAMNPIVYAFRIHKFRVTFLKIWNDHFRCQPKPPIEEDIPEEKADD

[14] = target: T8, Adenosine receptor A3 (Mus musculus) (UniProt Q61618); assay: Agonist activity at mouse A3AR adenosine receptor at 10 uM after 60 mins by [35S]GTPgammaS binding assay relative to (2S,3S,4R,5R)-5-(6-amino-9H-purin-9-yl)-N-ethyl-3,4-dihydroxytetrahydrofuran-2-carboxamide; assay type: functional
T8 sequence (whole entry): T5 sequence (Q61618 whole entry)

Mus musculus [15] = species: Mus musculus; assay: Selectivity index, ratio of Ki for mouse A3A adenosine receptor to Ki for mouse A1A adenosine receptor expressed in CHO cell membranes after 60 mins by scintillation proximity assay
[16] = Fraction unbound in human plasma at 10 uM; assay type: ADME, cell-free
[17] = Fraction unbound in mouse plasma at 10 uM; assay type: ADME, cell-free
[18] = Fraction unbound in rat plasma at 10 uM; assay type: ADME, cell-free
[19] = target: T8, Adenosine receptor A3 (Mus musculus); assay: Displacement of [125I]N6-(4-amino-3-iodobenzyl)adenosine-5-N-methyluronamide from mouse A3A adenosine receptor expressed in CHO cell membranes at 10 uM after 60 mins by scintillation proximity assay relative to adenosine 5-N-ethyluronamide

T1 sequence (P29274 whole entry): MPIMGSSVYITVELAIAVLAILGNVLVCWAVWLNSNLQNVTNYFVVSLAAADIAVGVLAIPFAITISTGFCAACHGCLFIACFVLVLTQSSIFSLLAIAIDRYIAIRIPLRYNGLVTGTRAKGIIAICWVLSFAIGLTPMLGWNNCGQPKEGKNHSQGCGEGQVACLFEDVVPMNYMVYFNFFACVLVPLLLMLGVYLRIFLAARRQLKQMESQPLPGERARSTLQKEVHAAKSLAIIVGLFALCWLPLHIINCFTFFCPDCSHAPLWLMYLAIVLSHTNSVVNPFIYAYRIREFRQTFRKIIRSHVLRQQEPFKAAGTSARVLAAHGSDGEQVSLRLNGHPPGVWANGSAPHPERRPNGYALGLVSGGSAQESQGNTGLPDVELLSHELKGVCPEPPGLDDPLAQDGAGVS
Translocator protein, sequence (P30536 whole entry): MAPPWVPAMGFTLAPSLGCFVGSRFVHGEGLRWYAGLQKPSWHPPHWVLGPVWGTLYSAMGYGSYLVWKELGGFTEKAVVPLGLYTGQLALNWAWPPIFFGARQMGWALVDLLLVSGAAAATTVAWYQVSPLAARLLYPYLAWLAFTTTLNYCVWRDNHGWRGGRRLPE
Adenosine receptor A2a (Mus musculus), sequence (Q60613 whole entry): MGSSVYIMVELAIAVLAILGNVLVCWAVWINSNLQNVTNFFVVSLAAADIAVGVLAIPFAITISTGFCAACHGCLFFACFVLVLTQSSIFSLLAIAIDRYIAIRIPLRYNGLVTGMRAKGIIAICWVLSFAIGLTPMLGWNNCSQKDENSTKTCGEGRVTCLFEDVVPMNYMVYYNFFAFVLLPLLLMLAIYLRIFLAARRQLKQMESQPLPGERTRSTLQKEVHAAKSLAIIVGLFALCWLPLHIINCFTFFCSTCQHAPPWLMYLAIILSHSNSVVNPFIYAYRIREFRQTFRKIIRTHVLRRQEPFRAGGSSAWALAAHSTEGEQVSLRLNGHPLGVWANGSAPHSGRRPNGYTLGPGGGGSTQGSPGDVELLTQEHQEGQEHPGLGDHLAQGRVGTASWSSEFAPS
Sigma intracellular receptor 2, sequence (Q5BJF2 whole entry): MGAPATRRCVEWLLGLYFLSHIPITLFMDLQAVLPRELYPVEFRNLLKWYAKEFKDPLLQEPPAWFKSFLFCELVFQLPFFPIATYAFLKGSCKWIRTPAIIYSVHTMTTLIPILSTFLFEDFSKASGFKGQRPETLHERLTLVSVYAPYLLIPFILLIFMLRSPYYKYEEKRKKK

inhibition (Adenosine receptor A2a [1])	inhibition [2]	inhibition [3]	Ki (Translocator protein)	Ki [6]	inhibition [7]	SMILES	T (Mus musculus [4])	Activity (Mus musculus [5])	other results
55%	26%	25%	2.93 µM			OC[C@@]12C[C@@H]1[C@@H](n1cnc3c(NC(C4CCC4)C4CCC4)nc(Cl)nc31)[C@H](O)[C@@H]2O	36.6 °C	18.4	
17%	20%		2.89 µM	0.349 µM		O[C@H]1[C@H](n2cnc3c(NC(C4CCC4)C4CCC4)nc(Cl)nc32)[C@H]2C[C@@]2(CCl)[C@H]1O	36.5 °C	18.9	
29%						OC[C@@]12C[C@@H]1[C@@H](n1cnc3c(N[C@H]4C[C@H]5CC[C@@H]4C5)nc(Cl)cc31)[C@H](O)[C@@H]2O			
22%	20%			0.583 µM	45%	O[C@H]1[C@H](n2cnc3c(NC(C4CCC4)C4CCC4)nc(Cl)nc32)[C@H]2C[C@@]2(CSc2ccccc2F)[C@H]1O			

Second part, the compound before the results:

SMILES	inhibition (Adenosine receptor A2a [1])	inhibition [2]	inhibition [3]	Ki (Translocator protein)	Ki [6]	inhibition [7]	T (Mus musculus [4])	Activity (Mus musculus [5])	other results
O[C@@H]1[C@H](O)[C@@H](CCl)O[C@H]1n1cnc2c(NC(C3CCC3)C3CCC3)ncnc21				3.98 µM	0.662 µM		35.8 °C	20.5	
O[C@@H]1[C@H](O)[C@@H](CCl)O[C@H]1n1cnc2c(NC3C[C@H]4CC[C@@H]3C4)ncnc21 (mixture of isomers)									Ki (Adenosine receptor A2a [8]): 1.34 µM; Ki (Adenosine receptor A3 [9]): 1.29 µM; Ki (Adenosine receptor A3 [10]): 2.41 µM; T (Mus musculus [11]): 32.2 °C; Activity (Mus musculus [12]): 2.8
O[C@@H]1[C@H](O)[C@@H](CSc2ccccc2F)O[C@H]1n1cnc2c(N[C@@H]3CCC[C@H]3O)ncnc21 [GS-9667]									Ki (Adenosine receptor A1): 0.012 µM; Ki (Adenosine receptor A2a [8]): > 10 µM
O[C@H]1[C@H](n2cnc3c(N[C@H]4C[C@H]5CC[C@@H]4C5)nc(Cl)nc32)[C@H]2C[C@@]2(CCl)[C@H]1O	54%	15%							Emax [13]: 123%; Emax [14]: 50%; Ratio Ki (Mus musculus [15]): 270; T (Mus musculus [11]): 36.6 °C; Activity (Mus musculus [12]): 16.8; Fu [16]: 4.04%; Fu [17]: 2.95%; Fu [18]: 2.53%
Nc1ncnc2c1ncn2[C@@H]1O[C@H](C(=O)O)[C@@H](O)[C@H]1O [5'-CARBOXY ADENOSINE]	11%		32%		0.796 µM	24%			
COC(=O)c1ncn([C@H]2[C@H](O)[C@H](O)[C@]3(CO)C[C@H]23)n1	14%		22%		1.72 µM	6%			inhibition [19]: 15%
